Assay results from ChEMBL document CHEMBL3885861, “Open TG-GATES”.

Organism: Rattus norvegicus
Assay: Open TG-GATES - Regimen: Daily Repeat
Assay type: toxicity, organism-based, Sprague-Dawley
Design: regimen Daily Repeat, gender Male, age 6 weeks
Settings: in vivo, po, 300 mg/kg, route gavage, dose level Middle; for APTT / Bas / Eos / Fbg / Hb / Ht / Lym / MCH / MCHC / MCV / Mono / Neu / PT / Plat / RBC / Ret / WBC: tissue Blood; for KIDNEY_L / KIDNEY_R / KIDNEY_TOTAL: tissue Kidney; for LIVER: tissue Liver; for A/G / ALP / ALT / AST / BUN / CRE / Ca / Cl / DBIL / GLC / IP / LDH / Na / PL / RALB / TBIL / TC / TG / TP / gamma-GTP: tissue Plasma

NC(N)=Nc1nc(CSCCC(N)=NS(N)(=O)=O)cs1 [FAMOTIDINE]
TERMINAL_BW (72 h, time 3 day): 225.8 g
APTT (72 h, time 3 day): 21.2 s
Bas (72 h, time 3 day): 0%
Eos (72 h, time 3 day): 1%
Fbg (72 h, time 3 day): 222 mg/dL
Hb (72 h, time 3 day): 13.6 g/dL
Ht (72 h, time 3 day): 37.4%
Lym (72 h, time 3 day): 82%
MCH (72 h, time 3 day): 23 pg
MCHC (72 h, time 3 day): 36.3%
MCV (72 h, time 3 day): 63.4 fL
Mono (72 h, time 3 day): 2.6%
Neu (72 h, time 3 day): 13.2%
PT (72 h, time 3 day): 12 s
Plat (72 h, time 3 day): 127.7 x10_4/uL
RBC (72 h, time 3 day): 589.8 x10_4/ul
Ret (72 h, time 3 day): 5.1%
WBC (72 h, time 3 day): 106.3 x10_2/uL
KIDNEY_L (72 h, time 3 day): 1 g
KIDNEY_R (72 h, time 3 day): 1 g
KIDNEY_TOTAL (72 h, time 3 day): 2 g
LIVER (72 h, time 3 day): 10.4 g
A/G (72 h, time 3 day): 1.7
ALP (72 h, time 3 day): 998.8 IU/L
ALT (72 h, time 3 day): 33.6 IU/L
AST (72 h, time 3 day): 65 IU/L
BUN (72 h, time 3 day): 14.4 mg/dL
CRE (72 h, time 3 day): 0.4 mg/dL
Ca (72 h, time 3 day): 10.9 mg/dL
Cl (72 h, time 3 day): 102.6 meq/L
DBIL (72 h, time 3 day): 0.082 mg/dL
GLC (72 h, time 3 day): 186.2 mg/dL
IP (72 h, time 3 day): 7.8 mg/dL
LDH (72 h, time 3 day): 194.2 IU/L
Na (72 h, time 3 day): 139.2 meq/L
PL (72 h, time 3 day): 141.4 mg/dL
RALB (72 h, time 3 day): 3.5 g/dL
TBIL (72 h, time 3 day): 0.1 mg/dL
TC (72 h, time 3 day): 76.2 mg/dL
TG (72 h, time 3 day): 77.6 mg/dL
TP (72 h, time 3 day): 5.6 g/dL
gamma-GTP (72 h, time 3 day): 1.2 IU/L
TERMINAL_BW ([…], time 7 day): 261.1 g
TERMINAL_BW ([…], time 14 day): 316.2 g
TERMINAL_BW ([…], time 28 day): 394.2 g
APTT ([…], time 7 day): 20.3 s
Bas ([…], time 7 day): 0%
Eos ([…], time 7 day): 1%
Fbg ([…], time 7 day): 225 mg/dL
Hb ([…], time 7 day): 13.9 g/dL
Ht ([…], time 7 day): 38.8%
Lym ([…], time 7 day): 79.2%
MCH ([…], time 7 day): 22.1 pg
MCHC ([…], time 7 day): 35.8%
MCV ([…], time 7 day): 61.7 fL
Mono ([…], time 7 day): 2.2%
Neu ([…], time 7 day): 16%
PT ([…], time 7 day): 12 s
Plat ([…], time 7 day): 114.6 x10_4/uL
RBC ([…], time 7 day): 629.6 x10_4/ul
Ret ([…], time 7 day): 5.2%
WBC ([…], time 7 day): 85.9 x10_2/uL
APTT ([…], time 14 day): 19.7 s
Bas ([…], time 14 day): 0%
Eos ([…], time 14 day): 0.8%
Fbg ([…], time 14 day): 224 mg/dL
Hb ([…], time 14 day): 14.4 g/dL
Ht ([…], time 14 day): 42%
Lym ([…], time 14 day): 79%
MCH ([…], time 14 day): 20.9 pg
MCHC ([…], time 14 day): 34.3%
MCV ([…], time 14 day): 60.9 fL
Mono ([…], time 14 day): 2.8%
Neu ([…], time 14 day): 16%
PT ([…], time 14 day): 12.4 s
Plat ([…], time 14 day): 120.5 x10_4/uL
RBC ([…], time 14 day): 689.4 x10_4/ul
Ret ([…], time 14 day): 4.3%
WBC ([…], time 14 day): 117 x10_2/uL
APTT ([…], time 28 day): 20.2 s
Bas ([…], time 28 day): 0%
Eos ([…], time 28 day): 1.4%
Fbg ([…], time 28 day): 220.6 mg/dL
Hb ([…], time 28 day): 15.4 g/dL
Ht ([…], time 28 day): 43.3%
Lym ([…], time 28 day): 82.2%
MCH ([…], time 28 day): 20 pg
MCHC ([…], time 28 day): 35.4%
MCV ([…], time 28 day): 56.4 fL
Mono ([…], time 28 day): 1.6%
Neu ([…], time 28 day): 13.4%
PT ([…], time 28 day): 12.5 s
Plat ([…], time 28 day): 100.3 x10_4/uL
RBC ([…], time 28 day): 768.2 x10_4/ul
Ret ([…], time 28 day): 2.3%
WBC ([…], time 28 day): 116.4 x10_2/uL
KIDNEY_L ([…], time 7 day): 1.2 g
KIDNEY_R ([…], time 7 day): 1.1 g
KIDNEY_TOTAL ([…], time 7 day): 2.3 g
KIDNEY_L ([…], time 14 day): 1.2 g
KIDNEY_R ([…], time 14 day): 1.2 g
KIDNEY_TOTAL ([…], time 14 day): 2.4 g
KIDNEY_L ([…], time 28 day): 1.4 g
KIDNEY_R ([…], time 28 day): 1.4 g
KIDNEY_TOTAL ([…], time 28 day): 2.8 g
LIVER ([…], time 7 day): 12.6 g
LIVER ([…], time 14 day): 13.4 g
LIVER ([…], time 28 day): 14.9 g
A/G ([…], time 7 day): 1.5
ALP ([…], time 7 day): 921.4 IU/L
ALT ([…], time 7 day): 34.2 IU/L
AST ([…], time 7 day): 65.2 IU/L
BUN ([…], time 7 day): 15.6 mg/dL
CRE ([…], time 7 day): 0.4 mg/dL
Ca ([…], time 7 day): 10.8 mg/dL
Cl ([…], time 7 day): 103.4 meq/L
DBIL ([…], time 7 day): 0.092 mg/dL
GLC ([…], time 7 day): 192.8 mg/dL
IP ([…], time 7 day): 7.6 mg/dL
LDH ([…], time 7 day): 183.4 IU/L
Na ([…], time 7 day): 141.4 meq/L
PL ([…], time 7 day): 161 mg/dL
RALB ([…], time 7 day): 3.4 g/dL
TBIL ([…], time 7 day): 0.1 mg/dL
TC ([…], time 7 day): 83.8 mg/dL
TG ([…], time 7 day): 111.4 mg/dL
TP ([…], time 7 day): 5.7 g/dL
gamma-GTP ([…], time 7 day): 1.4 IU/L
A/G ([…], time 14 day): 1.6
ALP ([…], time 14 day): 907.6 IU/L
ALT ([…], time 14 day): 40.2 IU/L
AST ([…], time 14 day): 66 IU/L
BUN ([…], time 14 day): 16 mg/dL
CRE ([…], time 14 day): 0.5 mg/dL
Ca ([…], time 14 day): 10.6 mg/dL
Cl ([…], time 14 day): 103.2 meq/L
DBIL ([…], time 14 day): 0.1 mg/dL
GLC ([…], time 14 day): 208.2 mg/dL
IP ([…], time 14 day): 7.3 mg/dL
LDH ([…], time 14 day): 151.6 IU/L
Na ([…], time 14 day): 140.2 meq/L
PL ([…], time 14 day): 146.6 mg/dL
RALB ([…], time 14 day): 3.5 g/dL
TBIL ([…], time 14 day): 0.2 mg/dL
TC ([…], time 14 day): 76 mg/dL
TG ([…], time 14 day): 97.4 mg/dL
TP ([…], time 14 day): 5.7 g/dL
gamma-GTP ([…], time 14 day): 2.2 IU/L
A/G ([…], time 28 day): 1.3
ALP ([…], time 28 day): 609.6 IU/L
ALT ([…], time 28 day): 35.2 IU/L
AST ([…], time 28 day): 66.8 IU/L
BUN ([…], time 28 day): 16.6 mg/dL
CRE ([…], time 28 day): 0.5 mg/dL
Ca ([…], time 28 day): 10.4 mg/dL
Cl ([…], time 28 day): 103.4 meq/L
DBIL ([…], time 28 day): 0.072 mg/dL
GLC ([…], time 28 day): 217.8 mg/dL
IP ([…], time 28 day): 7 mg/dL
LDH ([…], time 28 day): 160.6 IU/L
Na ([…], time 28 day): 141 meq/L
PL ([…], time 28 day): 133 mg/dL
RALB ([…], time 28 day): 3.3 g/dL
TBIL ([…], time 28 day): 0.1 mg/dL
TC ([…], time 28 day): 68.6 mg/dL
TG ([…], time 28 day): 86.2 mg/dL
TP ([…], time 28 day): 5.9 g/dL
gamma-GTP ([…], time 28 day): 1 IU/L
